The assay concerns the target T1, Human S1P3 receptor (Homo sapiens, UniProt Q99500).
T1 construct: expressed in transfected cells; host or cells: CHO cells (Geneticin-selected)
Kind of assay: Suppression of S1P-induced cellular calcium mobilization in human S1P3 receptor-expression CHO cells (Schild plot). The format is cell-based. As to conditions: Schild plot of S1P EC50 shift; test compound 125 nM, 1.25 μM, 12.5 μM; hS1P3 CHO cells; read-out: S1P3 dissociation constant Kd value. The method, then:
Suppression Effect of Test Compound Against Cellular Calcium Mobilization of Human S1P3 Receptor-Expression Cell by S1P (Sphingosine 1-Phosphoric Acid)
Human S1P3 receptor-expression CHO cells were subcultured in a Ham's F-12 culture medium containing 10% fetal bovine serum, and 300 μg/mL of Geneticin. The human S1P3 receptor-expression CHO cells were subjected to 0.25% trypsinization, then recovered from the dish, and floated in a Ham's F-12 culture medium containing 10% fetal bovine serum, and 300 μg/mL of Geneticin. After that, the human S1P3 receptor-expression CHO cells were disseminated into a 96-well black clear bottom plate (BD Falcon Biocoat) so that 7×10^4/100 μL/well of the human S1P3 receptor-expression CHO cells were disseminated. And then, the human S1P3 receptor-expression CHO cells were cultivated for one night at 37° C. under 5% CO2. The next day, the wells were washed 3 times with 100 μL of PBS containing 0.1% fatty acid-free bovine serum albumin (BSA). The culture medium was exchanged with a Ham's F-12 culture medium containing 0.1% BSA, and then starved of serum for 6 hours in an CO2 incubator at 37° C.
The culture medium was thrown away after the 6 hours. Then, 50 μL/well of a Fluo3 loading buffer was added, and the cultures were cultivated for further 1 hour. The Fluo3 loading buffer was prepared as follows. First, equal amounts of Fluo3-AM (Dojindo) and pluronic F-127 (20% DMSO solution, invitrogen) were mixed. Next, the mixture of Fluo3-AM and pluronic F-127 was added to a Hanks-HEPES buffer (balanced salt solution containing 20 mM HEPES (pH, 7.4), 0.1% BSA (fatty acid-free), and 2.5 mM probenecid) to form a Fluo3 loading buffer having a final Fluo3-AM concentration of 4
After incubating for 1 hour, the cultures were washed 3 times with 100 μL of the Hanks-HEPES buffer. Then, 100 μL of the same buffer in which a test compound (125 nM, 1.25 μM, 12.5 μM) or DMSO had been dissolved was added to the cultures, and then incubated for 30 minutes at 37° C. in a microplate spectrophotofluorometer (FLEX Station) (Molecular Device Co., Ltd.). Then, 25 μL of S1P prepared at 5 times the concentration of the final concentration by serial dilution (final concentration of 0.1 nM, 1 nM, 10 nM, 100 nM, and 1 μM) was added, and the fluorescence based on the Fluo3 due to calcium mobilization was detected and measured at an excitation wavelength of 485 nm and a detection wavelength of 525 nm using the same apparatus. Based on the measurement data, the increase in fluorescence was calculated by subtracting the minimum fluorescence intensity from the maximum fluorescence intensity. The measured increase in fluorescence was used to perform a curve approximation of the relationship between the S1P concentration and the increase in fluorescence using PRISM 4 software (GraphPad). Based on the results, the EC50 value of the compound-untreated and the EC50 value of the compound-treated at each concentration were calculated. Schild Plot analysis was performed based on these values to determine dissociation constant Kd value. In Table 1, 1,000 nmol/L>Kd value≧100 nmol/L is indicated as “+,” 100 nmol/L>Kd value≧10 nmol/L is indicated as “++,” 10 nmol/L>Kd value≧1 nmol/L is indicated as “+++,” and 1 nmol/L>Kd value is indicated as “++++.”
A general note: Calcium assays in cells follow changes in intracellular calcium, usually with a dye or a luminescent sensor.

T1 sequence (Q99500 whole entry): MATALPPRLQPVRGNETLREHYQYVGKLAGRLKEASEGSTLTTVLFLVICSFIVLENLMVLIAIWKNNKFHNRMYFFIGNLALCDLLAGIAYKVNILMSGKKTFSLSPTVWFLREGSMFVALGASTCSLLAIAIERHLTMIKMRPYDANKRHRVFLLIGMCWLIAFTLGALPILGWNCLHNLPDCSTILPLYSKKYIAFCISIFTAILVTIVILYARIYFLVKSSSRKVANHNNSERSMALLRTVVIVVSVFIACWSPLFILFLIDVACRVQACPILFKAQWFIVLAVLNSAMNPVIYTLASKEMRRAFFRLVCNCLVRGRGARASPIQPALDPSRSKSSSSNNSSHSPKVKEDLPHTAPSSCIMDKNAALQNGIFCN

With `COc1ccc(O)c(Sc2ccc(CC[C@](C)(N)COP(=O)(O)O)c(Cl)c2)c1` [Example 6, (S)-2-amino-4-[2-chloro-4-(2-hydroxy-5-methoxyphenylthio)phenyl]-2-methylbutylphosphoric acid monoester], the Kd was in the range of 100 to 1000 nM.
Take `CCC[C@](N)(CCc1ccc(Sc2cc(C3CC3)ccc2O)cc1Cl)COP(=O)(O)O` [Example 20, (S)-2-amino-4-[2-chloro-4-(5-cyclopropyl-2-hydroxyphenylthio)phenyl]-2-propylbutylphosphoric acid monoester]: the Kd was 1 to 10 nM.
As for `C[C@](N)(CCc1ccc(Sc2ccccc2O)cc1Cl)COP(=O)(O)O` [Example 14, (S)-2-amino-4-[2-chloro-4-(2-hydroxyphenylthio)phenyl]-2-methylbutylphosphoric acid monoester], the Kd was 10 to 100 nM.
As for `CC(=O)c1ccc(O)c(Sc2ccc(CC[C@](C)(N)COP(=O)(O)O)c(Cl)c2)c1` [Example 16, (S)-4-[4-(5-acetyl-2-hydroxyphenylthio)-2-chlorophenyl]-2-amino-2-methylbutylphosphoric acid monoester], the figure is 10 to 100 nM.
Take `CCCc1ccc(O)c(Sc2ccc(CC[C@@](N)(CCC)COP(=O)(O)O)c(Cl)c2)c1` [Example 18, (S)-2-amino-4-[2-chloro-4-(2-hydroxy-5-propylphenylthio)phenyl]-2-propylbutylphosphoric acid monoester]: the Kd lay in the range of 1 to 10 nM.
`C[C@](N)(CCc1ccc(Sc2cc(OCc3ccccc3)ccc2O)cc1Cl)COP(=O)(O)O` [Example 9, (S)-2-amino-4-[4-(5-benzyloxy-2-hydroxyphenylthio)-2-chlorophenyl]-2-methylbutylphosphoric acid monoester]: the Kd lay in the range of 1 to 10 nM.
Regarding `C[C@](N)(CCc1ccc(Sc2cc(C3CC3)ccc2O)cc1Cl)COP(=O)(O)O` [Example 5, (S)-2-amino-4-[2-chloro-4-(5-cyclopropyl-2-hydroxyphenylthio)phenyl]-2-methylbutylphosphoric acid monoester], the Kd lay in the range of 1 to 10 nM.
Turning to `CCC[C@](N)(CCc1ccc(Sc2cc(C(C)(C)C)ccc2O)cc1Cl)COP(=O)(O)O` [Example 21, (S)-2-amino-4-[4-(5-t-butyl-2-hydroxyphenylthio)-2-chlorophenyl]-2-propylbutylphosphoric acid monoester], the Kd was less than 1 nM.
With `CC(C)Oc1ccc(O)c(Sc2ccc(CC[C@](C)(N)COP(=O)(O)O)c(Cl)c2)c1` [Example 8, (S)-2-amino-4-[2-chloro-4-(2-hydroxy-5-isopropoxyphenylthio)phenyl]-2-methylbutylphosphoric acid monoester] the figure was 10 to 100 nM.
With `CCC[C@](N)(CCc1ccc(Sc2cc(OCc3ccccc3)ccc2O)cc1Cl)COP(=O)(O)O` [Example 23, (S)-2-amino-4-[4-(5-benzyloxy-2-hydroxyphenylthio)-2-chlorophenyl]-2-propylbutylphosphoric acid monoester] the figure was 1 to 10 nM; with `CC(C)c1ccc(O)c(Sc2ccc(CC[C@](C)(N)COP(=O)(O)O)c(Cl)c2)c1` [Example 4], 1 to 10 nM.
As for `CCc1ccc(O)c(Sc2ccc(CC[C@](C)(N)COP(=O)(O)O)c(Cl)c2)c1` [Example 2, (S)-2-amino-4-[2-chloro-4-(5-ethyl-2-hydroxyphenylthio)phenyl]-2-methylbutylphosphoric acid monoester], the figure is 10 to 100 nM.
Consider `CCOc1ccc(O)c(Sc2ccc(CC[C@](C)(N)COP(=O)(O)O)c(Cl)c2)c1` [Example 7, (S)-2-amino-4-[2-chloro-4-(5-ethoxy-2-hydroxyphenylthio)phenyl]-2-methylbutylphosphoric acid monoester], for which the Kd was in the range of 10 to 100 nM.
Take `C[C@](N)(CCc1ccc(Sc2cc(Cl)ccc2O)cc1Cl)COP(=O)(O)O` [Example 10, (S)-2-amino-4-[2-chloro-4-(5-chloro-2-hydroxyphenylthio)phenyl]-2-methylbutylphosphoric acid monoester]: the Kd fell in the range of 10 to 100 nM.

One may read the Kd as a measure of binding affinity in units of concentration.

For the origin of these results see patent US8569270B2, “Diphenyl sulfide derivatives and medicines containing same as active ingredient” (Kyorin Pharmaceutical Co., Ltd., priority 2009, dated 2013).
